Laboratory results published in patent US20240208912A1 (Mirati Therapeutics, Inc., priority 2021, published 2024).
Read-outs that look alike come from different tables or passages of the source.

Molecular target: T1, PRMT5/MEP50 complex (Homo sapiens, UniProt O14744)
T1 construct: purchased Reaction Biology Corporation
Assay: PRMT5:MEP50 HotSpot Assay (full-length histone H2A substrate, plus and minus MTA)
Format: biochemical
Description: The PRMT5 inhibitory activity of compounds of the present invention was determined using either a PRMT5:MEP50 FlashPlate Assay (Reaction Biology Corporation) or a PRMT5:MEP50 HotSpot Assay (Reaction Biology Corporation).
The assay uses recombinant full-length hi stone H2A as the PRMT5 substrate. […] The reaction was stopped and transferred to filter paper for detection. The amount of tritiated H2A in each sample was determined using a scintillation counter.

[1] = IC50 + 2 μM MTA, in the presence of 2 μM MTA

T1 sequence (O14744 2-637 limits assumed): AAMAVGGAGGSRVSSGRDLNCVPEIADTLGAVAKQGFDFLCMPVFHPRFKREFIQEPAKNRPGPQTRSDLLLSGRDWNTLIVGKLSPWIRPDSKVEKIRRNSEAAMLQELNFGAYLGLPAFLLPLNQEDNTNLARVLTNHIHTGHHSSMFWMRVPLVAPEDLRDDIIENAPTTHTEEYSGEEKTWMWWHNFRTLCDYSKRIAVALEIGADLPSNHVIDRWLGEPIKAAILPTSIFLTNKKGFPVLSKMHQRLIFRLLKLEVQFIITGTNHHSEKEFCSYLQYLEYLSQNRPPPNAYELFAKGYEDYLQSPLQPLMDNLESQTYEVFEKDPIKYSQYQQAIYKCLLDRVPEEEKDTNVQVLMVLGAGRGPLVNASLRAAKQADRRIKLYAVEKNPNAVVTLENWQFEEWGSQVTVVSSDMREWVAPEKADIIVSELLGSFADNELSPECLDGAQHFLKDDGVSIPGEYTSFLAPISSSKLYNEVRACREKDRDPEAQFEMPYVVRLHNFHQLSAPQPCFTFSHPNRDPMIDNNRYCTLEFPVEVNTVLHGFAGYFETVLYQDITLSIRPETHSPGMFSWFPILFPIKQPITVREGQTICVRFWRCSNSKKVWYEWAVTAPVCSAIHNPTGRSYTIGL
T1 sequence (Q9BQA1 2-342 partner limits assumed): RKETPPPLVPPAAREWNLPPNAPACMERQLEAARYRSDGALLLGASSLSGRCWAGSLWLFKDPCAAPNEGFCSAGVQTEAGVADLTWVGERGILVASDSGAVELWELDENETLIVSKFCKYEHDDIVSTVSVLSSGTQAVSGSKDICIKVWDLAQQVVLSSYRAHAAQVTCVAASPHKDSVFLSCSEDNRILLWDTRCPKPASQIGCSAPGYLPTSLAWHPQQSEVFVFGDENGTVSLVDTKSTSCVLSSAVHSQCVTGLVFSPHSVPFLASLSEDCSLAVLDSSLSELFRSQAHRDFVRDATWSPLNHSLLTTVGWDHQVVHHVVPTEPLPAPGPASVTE

| IC50 [1] | IC50 (in the absence of MTA, read-out: IC50) | Structure (SMILES) |
| --- | --- | --- |
| 356 nM |  | Cc1cc2ccccc2c(C#N)c1-c1c(-c2ccc3c(=O)[nH]nc(CN)c3c2)cnn1C (single isomer, unassigned) [Example 12-15B] |
| 477 nM |  | Cn1ncc(-c2ccc3c(=O)[nH]nc(CN)c3c2)c1-c1c(C#N)cc2[nH]cnc2c1Cl (atropisomer, axis not shown; (P)) [Example 16-116, (P)-5-(4-(4-(aminomethyl)-1-oxo-1,2-dihydrophthalazin-6-yl)-1-methyl-1H-pyrazol-5-yl)-4-chloro-1H-benzo[d]imidazole-6-carbonitrile] |
| 7510 nM |  | COc1nnc(CN)c2cc(-c3cnn(C)c3-c3sc4ccccc4c3C#N)ccc12 [Example 17-6] |
| 1480 nM |  | Cc1ncc(-c2ccc3c(=O)[nH]nc(CN)c3c2)n1-c1sc2ccccc2c1C#N [Example 4-288, 2-(5-(4-(aminomethyl)-1-oxo-1,2-dihydrophthalazin-6-yl)-2-methyl-1H-imidazol-1-yl)benzo[b]thiophene-3-carbonitrile] |
|  | > 10000 nM | Cn1ncc(-c2ccc3c(=O)[nH]nc(CN)c3c2)c1-c1ccccc1C#N [Example 4-100, 2-(4-(4-(aminomethyl)-1-oxo-1,2-dihydrophthalazin-6-yl)-1-methyl-1H-pyrazol-5-yl)benzonitrile] |
| 1270 nM |  | C[C@@H](N)c1n[nH]c(=O)c2ccc(-c3cnn(C)c3-c3ccc4ccccc4c3C#N)nc12 [Example 20-1] |
| > 10000 nM |  | Cn1ncc(-c2ccc3c(=O)[nH]nc(CN)c3c2)c1-c1c(C2COC2)ccc2c1COC2 (atropisomer, axis not shown; (P)) [Example 16-137, (P)-4-(aminomethyl)-6-(1-methyl-5-(5-(oxetan-3-yl)-1,3-dihydroisobenzofuran-4-yl)-1H-pyrazol-4-yl)phthalazin-1(2H)-one] |
| 2950 nM |  | Cn1ncc(-c2ccc3c(=O)[nH]nc(CN)c3c2)c1-c1c(F)c(Cl)cc(CC2CC2)c1C#N (single isomer, unassigned) [Example 16-125, (P)-2-(4-(4-(aminomethyl)-1-oxo-1,2-dihydrophthalazin-6-yl)-1-methyl-1H-pyrazol-5-yl)-4-chloro-6-(cyclopropylmethyl)-3-fluorobenzonitrile] |
| 758 nM |  | Cn1ncc(-c2ccc3c(=O)[nH]nc(CN)c3c2)c1-c1c(F)cnc(OC2CC2)c1C#N (atropisomer, axis not shown; (P)) [Example 16-135, (P)-4-(4-(4-(aminomethyl)-1-oxo-1,2-dihydrophthalazin-6-yl)-1-methyl-1H-pyrazol-5-yl)-2-cyclopropoxy-5-fluoronicotinonitrile] |
| 347 nM |  | Cn1ncc(-c2ccc3c(=O)[nH]nc(CN)c3c2)c1-c1c(Cl)ccc(OC2CC2)c1C#N (atropisomer, axis not shown; (P)) [Example 16-131, (P)-2-(4-(4-(aminomethyl)-1-oxo-1,2-dihydrophthalazin-6-yl)-1-methyl-1H-pyrazol-5-yl)-3-chloro-6-cyclopropoxybenzonitrile] |
| 3820 nM |  | N#Cc1ccccc1-n1c(-c2ccc3c(=O)[nH]nc(CN)c3c2)cnc1CO [Example 4-194, 2-(5-(4-(aminomethyl)-1-oxo-1,2-dihydrophthalazin-6-yl)-2-(hydroxymethyl)-1H-imidazol-1-yl)benzonitrile] |
| 393 nM |  | Cn1ncc(-c2ccc3c(=O)[nH]nc(CN)c3c2)c1-c1c(F)cnc(OC2CC2)c1C#N (atropisomer, axis not shown; (M)) [Example 16-136, (M)-4-(4-(4-(aminomethyl)-1-oxo-1,2-dihydrophthalazin-6-yl)-1-methyl-1H-pyrazol-5-yl)-2-cyclopropoxy-5-fluoronicotinonitrile] |
| 70 nM |  | Cn1ncc(-c2ccc3c(=O)[nH]nc(CN)c3c2)c1-c1c(Cl)c(Cl)cc(OC2CC2)c1C#N (single isomer, unassigned) [Example 16-124, (M)-2-(4-(4-(aminomethyl)-1-oxo-1,2-dihydrophthalazin-6-yl)-1-methyl-1H-pyrazol-5-yl)-3,4-dichloro-6-cyclopropoxybenzonitrile] |
| 29 nM |  | Cn1ncc(-c2ccc3c(=O)[nH]nc(CN)c3c2)c1-c1c(F)c(Cl)cc(CC2CC2)c1C#N (single isomer, unassigned) [Example 16-126, (M)-2-(4-(4-(aminomethyl)-1-oxo-1,2-dihydrophthalazin-6-yl)-1-methyl-1H-pyrazol-5-yl)-4-chloro-6-(cyclopropylmethyl)-3-fluorobenzonitrile] |
| > 10000 nM |  | Cn1ncc(-c2ccc3c(c2)C(C)(N)CNC3=O)c1-c1sc2ccccc2c1C#N (stereo not drawn) [Example 20-7, 2-(4-(4-amino-4-methyl-1-oxo-1,2,3,4-tetrahydroisoquinolin-6-yl)-1-methyl-1H-pyrazol-5-yl)benzo[b]thiophene-3-carbonitrile] |
| 2250 nM |  | Cc1ncn(-c2ccc3c(=O)[nH]nc(CN)c3c2)c1-c1sc2ccccc2c1C#N [Example 20-6, 2-[3-[4-(aminomethyl)-1-oxo-2H-phthalazin-6-yl]-5-methyl-imidazol-4-yl]benzothiophene-3-carbonitrile] |
| 112 nM |  | Cc1c(Cl)cc(OC2CC2)c(C#N)c1-c1c(-c2ccc3c(=O)[nH]nc(CN)c3c2)cnn1C (single isomer, unassigned) [Example 16-122, (P)-2-(4-(4-(aminomethyl)-1-oxo-1,2-dihydrophthalazin-6-yl)-1-methyl-1H-pyrazol-5-yl)-4-chloro-6-cyclopropoxy-3-methylbenzonitrile] |
| 634 nM |  | Cc1c(F)c(-c2c(-c3cc(C)c4c(=O)[nH]nc(CN)c4c3)cnn2C)c(C#N)c2cc(Cl)cnc12 (single isomer, unassigned) [Example 16-107, (P)-6-(4-(4-(aminomethyl)-8-methyl-1-oxo-1,2-dihydrophthalazin-6-yl)-1-methyl-1H-pyrazol-5-yl)-3-chloro-7-fluoro-8-methylquinoline-5-carbonitrile] |
| 168 nM |  | Cn1ncc(-c2ccc3c(=O)[nH]nc(CN)c3c2)c1N1CCCC1C#N (stereo not drawn) [Example 4-290, 1-(4-(4-(aminomethyl)-1-oxo-1,2-dihydrophthalazin-6-yl)-1-methyl-1H-pyrazol-5-yl)pyrrolidine-2-carbonitrile] |
| 51 nM |  | CCOc1cc(-c2cnn(C)c2-c2c(F)c(C)c3ncc(Cl)cc3c2C#N)cc2c(CN)n[nH]c(=O)c12 (single isomer, unassigned) [Example 16-112, (M)-6-(4-(4-(aminomethyl)-8-ethoxy-1-oxo-1,2-dihydrophthalazin-6-yl)-1-methyl-1H-pyrazol-5-yl)-3-chloro-7-fluoro-8-methylquinoline-5-carbonitrile] |
| 1310 nM |  | Cn1ncc(-c2cnc3c(=O)[nH]nc(CN)c3c2)c1-c1sc2ccccc2c1C#N [Example 17-4, 2-(4-(5-(aminomethyl)-8-oxo-7,8-dihydropyrido[2,3-d]pyridazin-3-yl)-1-methyl-1H-pyrazol-5-yl)benzo[b]thiophene-3-carbonitrile] |
| > 10000 nM |  | Cc1c(Cl)cc(OC2CC2)c(C#N)c1-c1c(-c2ccc3c(=O)[nH]nc(CN)c3c2)cnn1C (single isomer, unassigned) [Example 16-121, (M)-2-(4-(4-(aminomethyl)-1-oxo-1,2-dihydrophthalazin-6-yl)-1-methyl-1H-pyrazol-5-yl)-4-chloro-6-cyclopropoxy-3-methylbenzonitrile] |
| 635 nM |  | Cn1ncc(-c2ccc3c(c2)C(CCN)NC3=O)c1-c1sc2ccccc2c1C#N (stereo not drawn) [Example 20-5, 2-[4-[3-(2-aminoethyl)-1-oxo-isoindolin-5-yl]-2-methyl-pyrazol-3-yl]benzothiophene-3-carbonitrile] |
| 4080 nM |  | Cn1ncc(-c2ccc3c(=O)[nH]nc(CN)c3c2)c1N1CCCCC1C#N (stereo not drawn) [Example 4-289, 1-(4-(4-(aminomethyl)-1-oxo-1,2-dihydrophthalazin-6-yl)-1-methyl-1H-pyrazol-5-yl)piperidine-2-carbonitrile] |
| 1030 nM |  | Cn1ncc(-c2ccc3c(c2)C(CN)NC3=O)c1-c1sc2ccccc2c1C#N (stereo not drawn) [Example 20-4, 2-(4-(3-(aminomethyl)-1-oxoisoindolin-5-yl)-1-methyl-1H-pyrazol-5-yl)benzo[b]thiophene-3-carbonitrile] |
| 1370 nM |  | Cc1c(F)c(-c2c(-c3cc(Cl)c4c(=O)[nH]nc(CN)c4c3)cnn2C)c(C#N)c2cc(Cl)cnc12 (single isomer, unassigned) [Example 16-109, (P)-6-(4-(4-(aminomethyl)-8-chloro-1-oxo-1,2-dihydrophthalazin-6-yl)-1-methyl-1H-pyrazol-5-yl)-3-chloro-7-fluoro-8-methylquinoline-5-carbonitrile] |
| 543 nM |  | Cc1cnc2cc(F)c(-c3c(-c4ccc5c(=O)[nH]nc(CN)c5c4)cnn3C)c(C#N)c2c1 (atropisomer, axis not shown; (P)) [Example 16-36, (P)-6-[4-[4-(aminomethyl)-1-oxo-2H-phthalazin-6-yl]-2-methyl-pyrazol-3-yl]-7-fluoro-3-methyl-quinoline-5-carbonitrile] |
| 737 nM |  | Cn1nnc(-c2ccc3c(=O)[nH]nc(CN)c3c2)c1-c1sc2ccccc2c1C#N [Example 4-291, 2-(4-(4-(aminomethyl)-1-oxo-1,2-dihydrophthalazin-6-yl)-1-methy1-1H-1,2,3-triazol-5-yl)benzo[b]thiophene-3-carbonitrile] |
| > 10000 nM |  | Cn1ncc(-c2ccc3c(=O)[nH]nc([C@H](N)C(F)F)c3c2)c1-c1ccc2ccccc2c1C#N [Example 9-6, 2-[4-[4-[(1S)-1-amino-2,2-difluoro-ethyl]-1-oxo-2H-phthalazin-6-yl]-2-methyl-pyrazol-3-yl]naphthalene-1-carbonitrile] |
| 347 nM |  | Cn1ncc(-c2ccc3c(=O)[nH]nc(CN)c3c2)c1-c1c(Cl)cc2ccccc2c1C#N (single isomer, unassigned) [Example 16-127, (P)-2-(4-(4-(aminomethyl)-1-oxo-1,2-dihydrophthalazin-6-yl)-1-methyl-1H-pyrazol-5-yl)-3-chloro-1-naphthonitrile] |
